Measurements published in US11072599B2, “Pyrazole compounds and uses thereof” (Yissum Research Development Company of the Hebrew …, priority 2017, dated 2021).

Tested on: RKO colorectal cells
Experiment: Dose-response compound screen in RKO cells (Western blot, indicators of CKIα inhibition)
Assay type: cell-based
Conditions: 16 hours at 37° C., 0.167-1.5 μM or 0.11-1 μM, ImageJ, 1 = mock (DMSO)-treated cells
Procedure: RKO cells were incubated for 16 hours at 37° C. with indicated concentrations of the compounds, or with the vehicle (DMSO) alone (−) and analyzed by Western Blot. Shown are Western Blot signals of β-catenin and p53 stabilization and phosphorylation of H2AX (γH2AX), a marker of DNA damage.
RKO colorectal cells were incubated with serial dilutions of each of the compounds (at a concentration range of 0.167-1.5 μM or 0.11-1 μM in DMSO) for 16 hours at 37° C. Cells were washed with PBS and cell pellets were incubated with ice cold protein lysis buffer containing protease inhibitor cocktail ( 1/200; Calbiochem) and phosphatase inhibitors (20 mM p-nitrophenyl phosphate (PNPP), 20 mM β-glycerophosphate and 300 nM okadaic acid). Western blot (WB) analysis was performed by means of standard techniques. Blots were incubated with antibodies detecting β-catenin ( 1/2,500; BD Transduction), p53 (DO-1&1801 hybridoma mix; dilution of 1:20 of supernatants from each), CKIα (C-19; 1/1,000; Santa Cruz Biotechnology) and phospho-histone H2AX (S139; 1/1,000; Millipore). Secondary antibodies were HRP-linked goat anti-mouse, goat anti-rabbit and rabbit anti-goat antibodies (all 1/10,000; Jackson). Blots were developed using ECL (GE Healthcare). Signal intensities corresponding to β-catenin and p53 stabilization and phosphorylation of H2AX (γH2AX—a marker of DNA damage)-indicators of CKIα inhibition (Elyada et al., Nature […]), were analyzed by the ImageJ software. Relative signal intensities are depicted in Table 1 (see also in FIG. 1), where values of 1 correspond to signals of mock (DMSO)-treated cells.

In order of falling “H2AX phosphorylation (γH2AX, relative signal intensity)” value:
1. Cn1ncc(-c2cc(N[C@H]3CC[C@H](N)CC3)ncc2Cl)c1CC1CC1 [A104, (1r,4r)-N1-(5-chloro-4-(5-(cyclopropylmethyl)-1-methyl-1H-pyrazol-4-yl)pyridin-2-yl)cyclohexane-1,4-diamine]  20
2. Cn1ncc(-c2cc(N[C@H]3CC[C@H](N)CC3)nc(N)n2)c1CC1CC1 [A107, N4-((1r,4r)-4-aminocyclohexyl)-6-(5-(cyclopropylmethyl)-1-methyl-1H-pyrazol-4-yl)pyrimidine-2,4-diamine]  1
3. Cn1ncc(-c2cccc(N[C@H]3CC[C@H](N)CC3)n2)c1CC1CC1 [A105, (1r,4r)-N1-(6-(5-(cyclopropylmethyl)-1-methyl-1H-pyrazol-4-yl)pyridin-2-yl)cyclohexane-1,4-diamine]  1
4. Cc1ccnn1[C@H]1CC[C@H](Nc2ncc(Cl)c(-c3cnn(C)c3CC3CC3)n2)CC1 [A102]  1
5. Cn1ncc(-c2cc(N[C@H]3CC[C@H](N)CC3)ncn2)c1CC1CC1 [A106, (1r,4r)-N1-(6-(5-(cyclopropylmethyl)-1-methyl-1H-pyrazol-4-yl)pyrimidin-4-yl)cyclohexane-1,4-diamine]  1
6. Cn1ncc(-c2cc(O)nc(N[C@H]3CC[C@H](N)CC3)n2)c1CC1CC1 [A108, 2-(((1r,4r)-4-aminocyclohexyl)amino)-6-(5-(cyclopropylmethyl)-1-methyl-1H-pyrazol-4-yl)pyrimidin-4-ol]  1

In order of rising “p53 stabilization (relative signal intensity)” value:
1. Cc1ccnn1[C@H]1CC[C@H](Nc2ncc(Cl)c(-c3cnn(C)c3CC3CC3)n2)CC1 [A102]  1
2. Cn1ncc(-c2cc(N[C@H]3CC[C@H](N)CC3)ncn2)c1CC1CC1 [A106, (1r,4r)-N1-(6-(5-(cyclopropylmethyl)-1-methyl-1H-pyrazol-4-yl)pyrimidin-4-yl)cyclohexane-1,4-diamine]  1
3. Cn1ncc(-c2cc(O)nc(N[C@H]3CC[C@H](N)CC3)n2)c1CC1CC1 [A108, 2-(((1r,4r)-4-aminocyclohexyl)amino)-6-(5-(cyclopropylmethyl)-1-methyl-1H-pyrazol-4-yl)pyrimidin-4-ol]  1
4. Cn1ncc(-c2cc(N[C@H]3CC[C@H](N)CC3)nc(N)n2)c1CC1CC1 [A107, N4-((1r,4r)-4-aminocyclohexyl)-6-(5-(cyclopropylmethyl)-1-methyl-1H-pyrazol-4-yl)pyrimidine-2,4-diamine]  2
5. Cn1ncc(-c2cccc(N[C@H]3CC[C@H](N)CC3)n2)c1CC1CC1 [A105, (1r,4r)-N1-(6-(5-(cyclopropylmethyl)-1-methyl-1H-pyrazol-4-yl)pyridin-2-yl)cyclohexane-1,4-diamine]  2
6. Cn1ncc(-c2cc(N[C@H]3CC[C@H](N)CC3)ncc2Cl)c1CC1CC1 [A104, (1r,4r)-N1-(5-chloro-4-(5-(cyclopropylmethyl)-1-methyl-1H-pyrazol-4-yl)pyridin-2-yl)cyclohexane-1,4-diamine]  20

In order of rising “β-Catenin stabilization (relative signal intensity)” value:
1. Cn1ncc(-c2cc(N[C@H]3CC[C@H](N)CC3)nc(N)n2)c1CC1CC1 [A107, N4-((1r,4r)-4-aminocyclohexyl)-6-(5-(cyclopropylmethyl)-1-methyl-1H-pyrazol-4-yl)pyrimidine-2,4-diamine]  4
2. Cc1ccnn1[C@H]1CC[C@H](Nc2ncc(Cl)c(-c3cnn(C)c3CC3CC3)n2)CC1 [A102]  4
3. Cn1ncc(-c2cccc(N[C@H]3CC[C@H](N)CC3)n2)c1CC1CC1 [A105, (1r,4r)-N1-(6-(5-(cyclopropylmethyl)-1-methyl-1H-pyrazol-4-yl)pyridin-2-yl)cyclohexane-1,4-diamine]  5
4. Cn1ncc(-c2cc(N[C@H]3CC[C@H](N)CC3)ncc2Cl)c1CC1CC1 [A104, (1r,4r)-N1-(5-chloro-4-(5-(cyclopropylmethyl)-1-methyl-1H-pyrazol-4-yl)pyridin-2-yl)cyclohexane-1,4-diamine]  9
5. Cn1ncc(-c2cc(N[C@H]3CC[C@H](N)CC3)ncn2)c1CC1CC1 [A106, (1r,4r)-N1-(6-(5-(cyclopropylmethyl)-1-methyl-1H-pyrazol-4-yl)pyrimidin-4-yl)cyclohexane-1,4-diamine]  9
6. Cn1ncc(-c2cc(O)nc(N[C@H]3CC[C@H](N)CC3)n2)c1CC1CC1 [A108, 2-(((1r,4r)-4-aminocyclohexyl)amino)-6-(5-(cyclopropylmethyl)-1-methyl-1H-pyrazol-4-yl)pyrimidin-4-ol]  9
